# Target: human MDM2 protein (amino acids 2-188) (Homo sapiens (Human), UniProt Q00987)
# Assay: TR-FRET assay, p53-MDM2 Assay 2 (modified)
# Type: binding
# Settings: TR-FRET; 0.1 nM MDM2, 0.1 nM Europium labeled streptavidin, Tecan genios Pro reader; read-out: IC50 p53-MDM2 Assay 2
# In short: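 Biotinylated human MDM2 (aa 2–188, 1.25 nM) was preincubated 15 min at room temperature with 0.625 nM Eu-streptavidin, then 10 nM Cy5-p53 peptide (aa 18–26) added for 15 min. TR-FRET ratio 665/620 nm (excitation 340 nm) was read; IC50 came from curve fitting.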
# Sequence of human MDM2 protein (amino acids 2-188) (Q00987 2-188): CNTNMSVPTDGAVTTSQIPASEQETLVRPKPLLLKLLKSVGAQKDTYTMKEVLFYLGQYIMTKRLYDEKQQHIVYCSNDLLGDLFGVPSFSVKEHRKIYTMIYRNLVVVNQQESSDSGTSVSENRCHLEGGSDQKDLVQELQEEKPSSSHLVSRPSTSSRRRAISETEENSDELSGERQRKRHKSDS
row,SMILES,IC50 [nM]
1,"COc1nc(N(C)C)ncc1-c1cc2c(n1C(C)C)[C@@H](c1ccc(C#N)cc1)N(c1cc(Cl)c(=O)n(C)c1)C2=O [Example 233, (R)-4-(5-(5-Chloro-1-methyl-6-oxo-1,6-dihydropyridin-3-yl)-2-(2-(dimethylamino)-4-methoxypyrimidin-5-yl)-1-isopropyl-4-oxo-1,4,5,6-tetrahydropyrrolo[3,4-b]pyrrol-6-yl)benzonitrile]",60.2
2,"CCOC(=O)Cc1cnc(OC)c(-c2cc3c(n2C(C)C)C(c2ccc(C#N)cc2)N(c2cccc(Cl)c2F)C3=O)c1 (stereo not shown) [Example 83, {5-[5-(3-Chloro-2-fluoro-phenyl)-6-(4-cyano-phenyl)-1-isopropyl-4-oxo-1,4,5,6-tetrahydro-pyrrolo[3,4-b]pyrrol-2-yl]-6-methoxy-pyridin-3-yl}-acetic acid ethyl ester]",4.16
3,"COc1cn(C)c(=O)cc1-c1cc2c(n1C(C)C)C(c1ccc(Cl)cc1)N(c1cc(Cl)ccc1C)C2=O (stereo not shown) [Example 149, 5-(5-Chloro-2-methyl-phenyl)-6-(4-chloro-phenyl)-1-isopropyl-2-(5-methoxy-1-methyl-2-oxo-1,2-dihydro-pyridin-4-yl)-5,6-dihydro-1H-pyrrolo[3,4-b]pyrrol-4-one]",0.11
4,"COc1ncc(-c2cc3c(n2C(C)C)C(c2ccc(C#N)cc2)N(c2cc(Cl)c[nH]c2=O)C3=O)c(OC)n1 (stereo not shown) [Example 126, 4-[5-(5-Chloro-2-oxo-1,2-dihydro-pyridin-3-yl)-2-(2,4-dimethoxy-pyrimidin-5-yl)-1-isopropyl-4-oxo-1,4,5,6-tetrahydro-pyrrolo[3,4-b]pyrrol-6-yl]-benzonitrile]",0.779
5,"COc1ccc(CC(N)=O)cc1-c1cc2c(n1C(C)C)C(c1ccc(Cl)cc1)N(c1cc(Cl)ccc1C)C2=O (stereo not shown) [Example 80, 2-{3-[5-(5-Chloro-2-methyl-phenyl)-6-(4-chloro-phenyl)-1-isopropyl-4-oxo-1,4,5,6-tetrahydro-pyrrolo[3,4-b]pyrrol-2-yl]-4-methoxy-phenyl}-acetamide]",0.115
6,"COc1ccccc1-c1cc2c(n1C(C)C)C(c1ccc(Cl)cc1)N(C1CCOCC1)C2=O (stereo not shown) [Example 74, 6-(4-Chloro-phenyl)-1-isopropyl-2-(2-methoxy-phenyl)-5-(tetrahydro-pyran-4-yl)-5,6-dihydro-1H-pyrrolo[3,4-b]pyrrol-4-one]",2.57
7,"COc1ncc(-c2cc3c(n2C(C)C)[C@H](c2ccc(C#N)cc2)N(c2cc(Cl)cn(C)c2=O)C3=O)c(OC)n1 [Example 215, 4-[(S)-5-(5-Chloro-1-methyl-2-oxo-1,2-dihydro-pyridin-3-yl)-2-(2,4-dimethoxy-Pyrimidin-5-yl)-1-isopropyl-4-oxo-1,4,5,6-tetrahydro-pyrrolo[3,4-b]pyrrol-6-yl]-benzonitrile]",0.527
8,"CNc1ncc(-c2cc3c(n2C(C)C)[C@@H](c2ccc(C#N)cc2)N(c2cc(Cl)cn(C)c2=O)C3=O)c(OC)n1 [Example 166, 4-[(R)-5-(5-Chloro-1-methyl-2-oxo-1,2-dihydro-pyridin-3-yl)-1-isopropyl-2-(4-methoxy-2-methylamino-pyrimidin-5-yl)-4-oxo-1,4,5,6-tetrahydro-pyrrolo[3,4-b]pyrrol-6-yl]-benzonitrile]",293
9,"COc1nc(N)ncc1-c1cc2c(n1C(C)C)C(c1ccc(C#N)cc1)N(c1cc(Cl)c[nH]c1=O)C2=O (stereo not shown) [Example 125, 4-[2-(2-Amino-4-methoxy-pyrimidin-5-yl)-5-(5-chloro-2-oxo-1,2-dihydro-pyridin-3-yl)-1-isopropyl-4-oxo-1,4,5,6-tetrahydro-pyrrolo[3,4-b]pyrrol-6-yl]-benzonitrile]",3.22
10,"COc1ccccc1-c1cc2c(n1C(C)C)C(c1ccc(Cl)cc1)N(c1cc(Cl)ccc1C#N)C2=O (stereo not shown) [Example 96, 4-Chloro-2-[6-(4-chloro-phenyl)-1-isopropyl-2-(2-methoxy-phenyl)-4-oxo-4,6-dihydro-1H-pyrrolo[3,4-b]pyrrol-5-yl]-benzonitrile]",1.95

# Reference: US9365576B2, “Pyrrolopyrrolidinone compounds” (Novartis AG, priority 2012, dated 2016)
